In ChEMBL document CHEMBL1201862, “PubChem BioAssay data set” (2004):
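Compound exposure: 48 hours, 5 concentrations, 96-well plates. GI50: concentration for 50% inhibition of growth.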 Active and inactive are the calls of the source. Cut-off read from the data, not from the text of the source: active = GI50 up to about 1.1 µM and inactive = higher.

Key:
Assay in all cases: growth of human tumour cells (NCI), 48 h
[1] = test system: HCT-116
[2] = test system: RXF 393
[3] = test system: OVCAR-4
[4] = test system: HCC 2998
[5] = test system: LOX IMVI
[6] = test system: SW-620
[7] = test system: SK-OV-3
[8] = test system: UACC-62
[9] = test system: MOLT-4
[10] = test system: MDA-MB-231
[11] = test system: NCI-H226
[12] = test system: SNB-75
[13] = test system: RPMI-8226
[14] = test system: DU-145
[15] = test system: OVCAR-5
[16] = test system: K562
[17] = test system: MDA-N
[18] = test system: U-251
[19] = test system: NCI/ADR-RES
[20] = test system: KM12

Row | Structure (SMILES) | GI50 [1] | GI50 [2] | GI50 [3] | GI50 [4] | GI50 [5] | GI50 [6] | GI50 [7] | GI50 [8] | GI50 [9] | GI50 [10] | GI50 [11] | GI50 [12] | GI50 [13] | GI50 [14] | GI50 [15] | GI50 [16] | GI50 [17] | GI50 [18] | GI50 [19] | GI50 [20]
1 | c1ccc(-c2cc(-c3cccs3)c(-c3cccs3)o2)cc1 | 50.7 µM (inactive) | > 100 µM (inactive) | > 100 µM (inactive) | > 100 µM (inactive) | > 100 µM (inactive) | > 100 µM (inactive) | > 100 µM (inactive) | > 100 µM (inactive) | > 100 µM (inactive) | > 100 µM (inactive) | > 100 µM (inactive) | > 100 µM (inactive) | > 100 µM (inactive) | > 100 µM (inactive) | > 100 µM (inactive) | > 100 µM (inactive) | > 100 µM (inactive) | > 100 µM (inactive) | > 100 µM (inactive) | 48.4 µM (inactive)
2 | C[S+]([O-])c1ncc2c(n1)-c1ccccc1OC2 (configuration not stated) | > 100 µM (inactive) | > 100 µM (inactive) | 85.9 µM (inactive) | 38.4 µM (inactive) | > 100 µM (inactive) | > 100 µM (inactive) | > 100 µM (inactive) | 92.3 µM (inactive) | > 100 µM (inactive) | > 100 µM (inactive) | > 100 µM (inactive) | > 100 µM (inactive) | 81.8 µM (inactive) | 38.6 µM (inactive) | > 100 µM (inactive) | > 100 µM (inactive) | > 100 µM (inactive) | > 100 µM (inactive) | > 100 µM (inactive) | > 100 µM (inactive)
3 | O=C(O)[C@@H]1C2CC([C@@H]1C(=O)O)[C@H](N1C(=O)CCC1=O)[C@@H]2Br (some centres not stated) | > 100 µM (inactive) | > 100 µM (inactive) | > 100 µM (inactive) | > 100 µM (inactive) | > 100 µM (inactive) | > 100 µM (inactive) | > 100 µM (inactive) | > 100 µM (inactive) | > 100 µM (inactive) | > 100 µM (inactive) | > 100 µM (inactive) | 84.5 µM (inactive) | > 100 µM (inactive) | > 100 µM (inactive) | > 100 µM (inactive) | > 100 µM (inactive) | > 100 µM (inactive) | > 100 µM (inactive) | > 100 µM (inactive) | > 100 µM (inactive)
4 | COC(=O)c1ccccc1CC(Cc1ccc2c(c1)CCC2)C(=O)OC (configuration not stated) | 49.1 µM (inactive) | > 100 µM (inactive) | > 100 µM (inactive) | > 100 µM (inactive) | > 100 µM (inactive) | > 100 µM (inactive) | > 100 µM (inactive) |  | 31.8 µM (inactive) | > 100 µM (inactive) | 57.5 µM (inactive) | 98.4 µM (inactive) | > 100 µM (inactive) | > 100 µM (inactive) | > 100 µM (inactive) | 95.1 µM (inactive) | 62.4 µM (inactive) | > 100 µM (inactive) | > 100 µM (inactive) | 33.6 µM (inactive)
5 | C=CCn1c(N)c(C#N)c(C#N)c1-c1ccccc1 |  | > 100 µM (inactive) | > 100 µM (inactive) | > 100 µM (inactive) | > 100 µM (inactive) | > 100 µM (inactive) | > 100 µM (inactive) | > 100 µM (inactive) | > 100 µM (inactive) | > 100 µM (inactive) | > 100 µM (inactive) | 26.2 µM (inactive) | > 100 µM (inactive) | > 100 µM (inactive) | > 100 µM (inactive) | > 100 µM (inactive) | > 100 µM (inactive) | > 100 µM (inactive) | > 100 µM (inactive) | > 100 µM (inactive)
6 | S=c1sc2nc(Cl)nc(Cl)c2s1 | 11.9 µM (inactive) | 12 µM (inactive) | 16.6 µM (inactive) | 15.3 µM (inactive) | 9.14 µM (inactive) | 6.85 µM (inactive) | 17.7 µM (inactive) | 13 µM (inactive) | 0.822 µM (active) | 9.02 µM (inactive) | 17.5 µM (inactive) | 17.3 µM (inactive) | 1.68 µM (inactive) | 16 µM (inactive) | 15.7 µM (inactive) | 4.24 µM (inactive) | 7.98 µM (inactive) | 7.8 µM (inactive) | 11 µM (inactive) | 7.85 µM (inactive)
7 | O=C1N/C(=N/N=C\C(O)C(O)C(O)C(O)CO)N/C1=C\c1ccc(Cl)cc1 (configuration not stated) | 9.59 µM (inactive) | 7.19 µM (inactive) | 7.46 µM (inactive) | 12.4 µM (inactive) | 5.5 µM (inactive) | 8.87 µM (inactive) | 16.6 µM (inactive) | 0.571 µM (active) | 3.9 µM (inactive) | 4.81 µM (inactive) | 3 µM (inactive) | 2.3 µM (inactive) | > 62.8 µM (inactive) | 15.2 µM (inactive) | 19.5 µM (inactive) | 10.6 µM (inactive) | 0.968 µM (active) | 2.15 µM (inactive) | > 100 µM (inactive) | 22.1 µM (inactive)
8 | COc1cccc(-c2cc(=O)c3ccccc3o2)c1N | 52 µM (inactive) | 45 µM (inactive) | 84.3 µM (inactive) | 28.2 µM (inactive) | > 100 µM (inactive) | 15.5 µM (inactive) | 15 µM (inactive) | 5.27 µM (inactive) | > 100 µM (inactive) | 26.9 µM (inactive) | 63 µM (inactive) | 51.6 µM (inactive) | > 76.6 µM (inactive) | > 100 µM (inactive) | > 91 µM (inactive) | > 75.3 µM (inactive) | 24.4 µM (inactive) | > 100 µM (inactive) | 33 µM (inactive) | > 100 µM (inactive)
9 | C[n+]1c(Cl)cn2c3nc4ccccc4nc3c([O-])c(C#N)c21 | > 100 µM (inactive) | > 100 µM (inactive) | > 59 µM (inactive) | > 10 µM (inactive) | > 100 µM (inactive) | > 100 µM (inactive) | > 100 µM (inactive) | > 92.7 µM (inactive) | > 100 µM (inactive) | > 100 µM (inactive) | > 100 µM (inactive) | > 54.6 µM (inactive) | > 100 µM (inactive) | > 100 µM (inactive) | > 10 µM (inactive) | > 100 µM (inactive) | > 100 µM (inactive) | > 100 µM (inactive) | > 100 µM (inactive) | > 10 µM (inactive)
10 | Nc1ncnc2c1N=C(c1ccccc1)CC(c1ccccc1)N2 (configuration not stated) | > 100 µM (inactive) | > 100 µM (inactive) | > 100 µM (inactive) | > 100 µM (inactive) | > 100 µM (inactive) | > 100 µM (inactive) | > 100 µM (inactive) | > 100 µM (inactive) | > 100 µM (inactive) | > 100 µM (inactive) | > 100 µM (inactive) | 23.6 µM (inactive) | > 100 µM (inactive) | > 100 µM (inactive) | > 100 µM (inactive) | > 100 µM (inactive) | > 100 µM (inactive) | > 100 µM (inactive) | 59.2 µM (inactive) | > 100 µM (inactive)
11 | CSCCCS/C1=C/CCCCCCCCCC1 | > 100 µM (inactive) | > 100 µM (inactive) | > 100 µM (inactive) | > 100 µM (inactive) | > 100 µM (inactive) |  | > 100 µM (inactive) | > 100 µM (inactive) | > 100 µM (inactive) | > 100 µM (inactive) | > 100 µM (inactive) | 0.281 µM (active) | > 100 µM (inactive) | > 100 µM (inactive) | > 100 µM (inactive) | > 100 µM (inactive) | > 100 µM (inactive) | > 100 µM (inactive) | > 100 µM (inactive) | > 100 µM (inactive)
12 | COc1ccc(N2C(=O)C(C)SC2c2cc3cc(Br)ccc3nc2Cl)cc1 (configuration not stated) | 37.8 µM (inactive) | 28.8 µM (inactive) | 27.8 µM (inactive) | 33.3 µM (inactive) | 33 µM (inactive) | 30.4 µM (inactive) | 59.8 µM (inactive) | 26.2 µM (inactive) | 20.9 µM (inactive) | 31.6 µM (inactive) | 55.3 µM (inactive) | 91 µM (inactive) | 32.7 µM (inactive) | 57.3 µM (inactive) | 57.9 µM (inactive) | 31.3 µM (inactive) | 28.5 µM (inactive) |  | 24.3 µM (inactive) | 30.8 µM (inactive)
13 | COc1cccc([C@@H]2CC(=O)c3cc4c(cc3N2)OCO4)c1 | > 100 µM (inactive) | > 100 µM (inactive) | > 100 µM (inactive) | > 100 µM (inactive) | > 100 µM (inactive) | > 100 µM (inactive) | > 100 µM (inactive) | 65.3 µM (inactive) |  | > 100 µM (inactive) | > 100 µM (inactive) | 86.3 µM (inactive) | 76.4 µM (inactive) | > 100 µM (inactive) | > 100 µM (inactive) | 98.4 µM (inactive) | > 100 µM (inactive) | > 100 µM (inactive) | > 100 µM (inactive) | > 100 µM (inactive)
14 | CC(C)(C)C1=NC(=S)SC2=NC(=O)C3(NN21)c1ccccc1-c1ccccc13 |  | > 10 µM (inactive) | 7.98 µM (inactive) | > 10 µM (inactive) | > 10 µM (inactive) | > 10 µM (inactive) | > 10 µM (inactive) | > 10 µM (inactive) | 3.45 µM (inactive) | 9.46 µM (inactive) | 6.07 µM (inactive) | > 10 µM (inactive) | 5.08 µM (inactive) | > 10 µM (inactive) |  | 5.05 µM (inactive) | 8.41 µM (inactive) |  | 5.41 µM (inactive) | > 10 µM (inactive)
